Our source for the Kd values is article PMC6301090 (Nature medicine, 2018).

This test addresses ΔF508-NBD1 (CFTR nucleotide binding domain 1) (Homo sapiens, UniProt P13569, F494N/DEL508-508). The test can be described thus: SPR.

The term Kd denotes the concentration at which binding is half-saturated. A higher Kd goes with lower affinity. In the case of `O=C(O)Cc1c(Br)[nH]c2ccccc12` [BIA, bromoindole-3-acetic acid], the Kd is more than 1000 µM.
